“And” between values parts separate entries of the source, which are not always exact repeats. Equal values may be shown once. Where a name gives a salt, the structure may show the parent alone.
Experiment: iontophoretic transdermal delivery of Tapentadol hydrochloride, 8 hours of iontophoresis (example 1a), side-bi-side diffusion cells, constant current 0.25 mA (0.4 mA/cm2), donor 100 mM in water
Type: in vitro ADME, pig
Conditions: for drug flux across the skin, Mean ± SD / drug flux across the skin, as tapentadol base, Mean ± SD / cumulative, iontophoretic delivery across the skin, Mean ± SD / cumulative, iontophoretic delivery across the skin, as tapentadol base, Mean ± SD: n=6; for drug flux across the skin, Mean ± SD / drug flux across the skin, as tapentadol base, Mean ± SD / cumulative, iontophoretic delivery across the skin, Mean ± SD / cumulative, iontophoretic delivery across the skin, as tapentadol base, Mean ± SD / drug flux across the skin / cumulative, iontophoretic delivery across the skin: patch area 0.64 cm^2; for drug flux across the skin / cumulative, iontophoretic delivery across the skin: single cells 1-6, hydrochloride
Protocol: Determination of the rate of iontophoretic transdermal delivery of Tapentadol hydrochloride for a period of 8 hours of iontophoresis
Tapentadol hydrochloride (batch no. A0012) was employed. The components of the phosphate buffered saline (PBS) and the mobile phase used were from Sigma, UK. The pig skin was obtained from a local farm, washed with water, excess hair was carefully trimmed with scissors, and the skin was dermatomed using a Zimmer dermatome set at a nominal thickness of 750 μm. The skin was then stored at −20° C.
The drug was delivered from the anode, using side-bi-side (horizontal) glass diffusion cells (n=6) supplied by Permegear, USA. The porcine skin membrane was excised from the dorsal surface.
Electrodes were prepared in-house and were made of silver/silver chloride. To pass current for 24 hours in this set-up, it was necessary for the donor compartment to contain 76 mM chloride ions.
The anode was placed in the donor chamber; the donor solution was 3 ml of Tapentadol hydrochloride (100 mM, i.e. 25.78 mg/ml of Tapentadol hydrochloride, 22.13 mg/ml of base) in water. The cathode was placed in the receptor chamber, which contained 3 ml of phosphate-buffered saline, pH 7.4. Both chambers were stirred by magnets.
Current was applied for a total of 8 or 24 hours, respectively.
The receptor solution was sampled and assayed at 0.5, 1, 2, 3, 4, 5, 6, 7, 8 (example 1a) and optionally 24 hours (example 1b) post-initiation of the current. During the 8 hour experiment (example 1a), at 0.5, 1, 2, and 3 hours, 1 ml of receptor solution was removed and replaced with fresh PBS. As it was clear that the amount of Tapentadol in the receptor solution was sufficient for quantitation by HPLC, at the subsequent sampling times of 4, 5, 6, 7 and 8 hours, the entire receptor solution (3 ml) was removed and replaced with fresh PBS, to ensure sink conditions in the receptor. During the 24 hour experiment (example 1b), the entire receptor solution (3 ml) was removed and replaced with fresh PBS at every sampling point.
The concentrations of Tapentadol hydrochloride in the receptor chamber samples were determined by HPLC. A mobile phase consisting of 300:700:1 methanol:water:phosphoric acid was pumped (1 ml/min) through a Acclaim RP-18 (4×150 mm) reverse-phase column (Dionex, UK) at 35° C. Tapentadol concentrations were quantified via their UV absorbance at 215 nm using a calibration curve diluted in PBS at pH 7.4. Injection volume was 20 μl and the retention time for Tapentadol hydrochloride was 12 minutes and the total run time was 16 minutes.
A Tapentadol-free “blank” diffusion cell (donor was saline only) was also prepared and the receptor solution was analysed after 8 hours to confirm no peaks from any component of the skin co-eluted with the Tapentadol hydrochloride.
Voltages were as expected for 6 cells in series (range was 6 to 28 volts). The pH of the donor solution was measured after termination of 24 hours of iontophoresis, and ranged from 6.47 to 6.99. The pH of drug in the donor prior to commencing the experiment was 5.07 (5.34 for the 8 hour iontophoresis).

In the case of `CC[C@@H](c1cccc(O)c1)[C@@H](C)CN(C)C` [Tapentadol hydrochloride], the “drug flux across the skin, Mean ± SD” value (0.5 h, iontophoresis) is reported as 8 ± 8 µg/h, the “drug flux across the skin, as tapentadol base, Mean ± SD” value (0.5 h, iontophoresis) is reported as 7 ± 6 µg/h and the “cumulative, iontophoretic delivery across the skin, Mean ± SD” value (0.5 h) is reported as 4 ± 4 µg. The “cumulative, iontophoretic delivery across the skin, as tapentadol base, Mean ± SD” value (“cumulative … as tapentadol base, Mean ± SD” for short) (0.5 h) was 3 ± 3 µg, the “drug flux across the skin, Mean ± SD” value (1 h, iontophoresis) was 56 ± 28 µg/h and the “drug flux across the skin, as tapentadol base, Mean ± SD” value (1 h, iontophoresis) was 48 ± 24 µg/h. The “cumulative, iontophoretic delivery across the skin, Mean ± SD” value (1 h) was 32 ± 18 µg, the “cumulative … as tapentadol base, Mean ± SD” value (1 h) was 28 ± 15 µg and the “drug flux across the skin, Mean ± SD” value (2 h, iontophoresis) was 115 ± 25 µg/h. For the same compound, the “drug flux across the skin, as tapentadol base, Mean ± SD” value (2 h, iontophoresis) was 98 ± 21 µg/h, the “drug flux across the skin” value (2 h, iontophoresis) was 104 µg/h and 162 µg/h and 119 µg/h and 112 µg/h and 90 µg/h and 102 µg/h and the “cumulative, iontophoretic delivery across the skin, Mean ± SD” value (2 h) was 147 ± 40 µg. For the same compound, the “cumulative … as tapentadol base, Mean ± SD” value (2 h) was 126 ± 35 µg, the “cumulative, iontophoretic delivery across the skin” value (2 h) was 216 µg and 173 µg and 128 µg and 127 µg and the “drug flux across the skin, Mean ± SD” value (3 h, iontophoresis) was 193 ± 31 µg/h. The “drug flux across the skin, as tapentadol base, Mean ± SD” value (3 h, iontophoresis) was 166 ± 26 µg/h, the “drug flux across the skin” value (3 h, iontophoresis) was 190 µg/h and 201 µg/h and 222 µg/h and 184 µg/h and 139 µg/h and 220 µg/h and the “cumulative, iontophoretic delivery across the skin, Mean ± SD” value (3 h) was 340 ± 62 µg. The “cumulative … as tapentadol base, Mean ± SD” value (3 h) was 291 ± 54 µg, the “cumulative, iontophoretic delivery across the skin” value (3 h) was 321 µg and 417 µg and 396 µg and 312 µg and 244 µg and 347 µg and the “drug flux across the skin, Mean ± SD” value (4 h, iontophoresis) was 228 ± 23 µg/h. The “drug flux across the skin, as tapentadol base, Mean ± SD” value (4 h, iontophoresis) was 196 ± 20 µg/h, the “drug flux across the skin” value (4 h, iontophoresis) was 229 µg/h and 257 µg/h and 209 µg/h and 250 µg/h and 196 µg/h and the “cumulative, iontophoretic delivery across the skin, Mean ± SD” value (4 h) was 568 ± 68 µg. For the same compound, the “cumulative … as tapentadol base, Mean ± SD” value (4 h) was 487 ± 58 µg, the “cumulative, iontophoretic delivery across the skin” value (4 h) was 550 µg and 674 µg and 624 µg and 522 µg and 494 µg and 543 µg and the “drug flux across the skin, Mean ± SD” value (5 h, iontophoresis) was 246 ± 30 µg/h. For the same compound, the “drug flux across the skin, as tapentadol base, Mean ± SD” value (5 h, iontophoresis) was 211 ± 26 µg/h, the “drug flux across the skin” value (5 h, iontophoresis) was 242 µg/h and 305 µg/h and 234 µg/h and 238 µg/h and 240 µg/h and 217 µg/h and the “cumulative, iontophoretic delivery across the skin, Mean ± SD” value (5 h) was 814 ± 92 µg. For the same compound, the “cumulative … as tapentadol base, Mean ± SD” value (5 h) was 699 ± 79 µg, the “cumulative, iontophoretic delivery across the skin” value (5 h) was 792 µg and 979 µg and 859 µg and 759 µg and 734 µg and 760 µg and the “drug flux across the skin, Mean ± SD” value (6 h, iontophoresis) was 244 ± 18 µg/h. For the same compound, the “drug flux across the skin, as tapentadol base, Mean ± SD” value (6 h, iontophoresis) was 209 ± 15 µg/h, the “drug flux across the skin” value (6 h, iontophoresis) was 247 µg/h and 275 µg/h and 245 µg/h and 225 µg/h and 242 µg/h and 228 µg/h and the “cumulative, iontophoretic delivery across the skin, Mean ± SD” value (6 h) was 1057 ± 107 µg. The “cumulative … as tapentadol base, Mean ± SD” value (6 h) was 908 ± 92 µg, the “cumulative, iontophoretic delivery across the skin” value (6 h) was 1040 µg and 1253 µg and 1104 µg and 984 µg and 976 µg and 988 µg and the “drug flux across the skin, Mean ± SD” value (7 h, iontophoresis) was 261 ± 26 µg/h. For the same compound, the “drug flux across the skin, as tapentadol base, Mean ± SD” value (7 h, iontophoresis) was 224 ± 22 µg/h, the “drug flux across the skin” value (7 h, iontophoresis) was 264 µg/h and 295 µg/h and 271 µg/h and 260 µg/h and 261 µg/h and 215 µg/h and the “cumulative, iontophoretic delivery across the skin, Mean ± SD” value (7 h) was 1319 ± 128 µg. The “cumulative … as tapentadol base, Mean ± SD” value (7 h) was 1132 ± 110 µg, the “cumulative, iontophoretic delivery across the skin” value (7 h) was 1304 µg and 1548 µg and 1375 µg and 1244 µg and 1237 µg and 1203 µg and the “drug flux across the skin, Mean ± SD” value (8 h, iontophoresis) was 260 ± 46 µg/h. For the same compound, the “drug flux across the skin, as tapentadol base, Mean ± SD” value (8 h, iontophoresis) was 224 ± 40 µg/h, the “drug flux across the skin” value (8 h, iontophoresis) was 260 µg/h and 353 µg/h and 241 µg/h and 234 µg/h and 242 µg/h and 232 µg/h and the “cumulative, iontophoretic delivery across the skin, Mean ± SD” value (8 h) was 1579 ± 171 µg. The “cumulative … as tapentadol base, Mean ± SD” value (8 h) was 1356 ± 147 µg, the “cumulative, iontophoretic delivery across the skin” value (8 h) was 1564 µg and 1901 µg and 1616 µg and 1479 µg and 1435 µg and the “time by which steady-state flux appears to have been reached” value (example 1a, iontophoresis) was 5 to 6 h.
